Experimental findings from publication PMC6114107, “Characterization and validation of Entamoeba histolytica pantothenate kinase as a novel anti-amebic drug target” (International Journal for Parasitology: Drugs and Drug …, 2018) are described below.

Like-named read-outs stand apart in the source and are kept apart here.

Assay [1] concerns the target T1, E. histolytica pantothenate kinase (Entamoeba histolytica, UniProt B1N2P3). The assay is described as follows: Phosphoryl donor specificity of EhPanK. The format is biochemical. The settings on record: donor 100 μM, 0.2 mM pantothenate, 10 mM MgCl2, 37 °C, pH 6; relative to ATP; ND = not detected. The text has this: EhPanK utilized various nucleoside triphosphates, ATP, CTP, GTP, UTP, dATP, and polyphosphates, as well as deoxynucleotides as phosphoryl donors, with ATP being the best phosphate donor (Table 2).

Assay [2] deals with T1, E. histolytica pantothenate kinase. Type of assay: biochemical.
Assay [3] deals with E. histolytica PanK (EhPanK) recombinant enzyme (Entamoeba histolytica, UniProt B1N2P3). The experiment in a line: biochemical. Here is the method:
We screened 244 compounds from the Kitasato Natural Products Library for inhibition of EhPanK activity. Initially, each compound was dissolved in 50% DMSO and water at a final concentration of 1 mg/mL. Enzymatic reactions were carried out on a black 384-well microtiter plate with a 20 μL reaction mixture composed of 19 μl enzyme mix (100 μM pantothenate, 100 μM ATP, 50 ng of EhPanK recombinant enzyme in kinase buffer (see above) and 1 μl of the individual compounds (final concentration 50 μg/mL or 25–200 μM) at 37 °C for 2 h. After the kinase reaction, ADP was measured using ADP Hunter™ Plus kinase assay kit as described previously. Inhibition values were measured in triplicate.
Fig. S8. Dose-response data of inhibitors against EhPanK inhibitors. IC50 values were determined by dose-response-inhibition using GraphPad Prism (GraphPad Software Inc., San Diego, USA). Data are shown in mean of three replicates.

For assay [4], the system named is MRC-5 cells (human fibroblast). The experiment in a line: Cytotoxicity against MRC-5 cells (WST-8, 48 h). Type of assay: cell-based. The settings on record: MRC5, MRC-5, 48 h, mean ± SEM, read-out: IC50 Normal human cell (MRC-5). The method, then: Human fibroblast cells, MRC-5, were cultured on 96-well flat bottom plates at a density of 1.5 × 10^4 cells/well with 100 μl of MEM medium (Life Technologie) containing 10% fetal bovine serum (Hana-nesco Bio, Tokyo, Japan) and 1% penicillin-streptomycin (Life Technologies). Cells were incubated at 37 °C with 5% CO2 for 48 h. Approximately 100 μl of MEM medium containing 5 μl of each compound dissolved in 50% DMSO in water were added to each well. After the plates were incubated for 48 h, approximately 10 μl of WST-8 (Dojindo, Kumamoto, Japan) was added to each well and the plate was incubated at 37 °C with 5% CO2 for 2 h. The absorbance was measured at 450 nm by spectrophotometer (SH-9000Lab, Corona Electric, Ibaraki, Japan). Growth of MRC-5 cells was measured in duplicate. Staurosporine (Kitasato Natural Products Library) was used as a positive (cytotoxic) control in a concentration range of 0.5 pM to 0.1 nM IC50 values were calculated as described previously.

Assay [5] concerns E. histolytica trophozoite (HM-1:IMSS cl6). The assay is described as follows: Anti-amebic activity, trophozoite viability (WST-1, 48 h). Type of assay: cell-based, Entamoeba histolytica. The settings on record: HM-1:IMSS cl6 trophozoites, anaerobic, 35.5 °C, mean ± SEM. Here is the method: Approximately 1 × 10^4 trophozoites of E. histolytica clonal strain HM-1:IMSS cl6 in 200 μl of BI-S-33 medium were dispensed into each well of a 96-well plate and incubated at 35.5 °C for 2 h. Medium was then removed and replaced with 200 μl of BI-S-33 medium that contained various concentrations of each compound. […] The plate was incubated under anaerobic conditions at 35.5 °C for 48 h. After the medium was removed, 100 μl of pre-warmed Opti-MEM I (Life Technologies, Grand Islands, NY, USA) containing one-tenth volume of WST-1 (Roche, Mannheim, Germany) was added. The viability of trophozoites was estimated by measuring absorbance at 450 nm by SpectraMax® Paradigm® (Molecular Devices, CA, USA). Metronidazole was used as positive control at final concentrations of 0.1–10 μM and 0.5% DMSO as negative control. Each assay was performed in triplicate. IC50 values were calculated by least squares curve fitting of the dose inhibition curves using GraphPad Prism (GraphPad Software Inc., San Diego, USA).
On the technique in general: Tetrazolium assays rely on reduction of a dye to a coloured formazan, in cell work by metabolically active cells.

[6] abbreviates: cation 5 mM, 0.2 mM pantothenate, 37 °C, pH 6.0, relative to MgCl2, ND = not detected.
[7] abbreviates: recombinant EhPanK, 100 μM pantothenate, 100 μM ATP, 37 °C, 2 h, mean ± SEM of three replicates, read-out: IC50 against EhPanK activity.

As a reminder, the IC50 is the midpoint of a concentration-inhibition curve.

T1 sequence (B1N2P3 entry or part of it): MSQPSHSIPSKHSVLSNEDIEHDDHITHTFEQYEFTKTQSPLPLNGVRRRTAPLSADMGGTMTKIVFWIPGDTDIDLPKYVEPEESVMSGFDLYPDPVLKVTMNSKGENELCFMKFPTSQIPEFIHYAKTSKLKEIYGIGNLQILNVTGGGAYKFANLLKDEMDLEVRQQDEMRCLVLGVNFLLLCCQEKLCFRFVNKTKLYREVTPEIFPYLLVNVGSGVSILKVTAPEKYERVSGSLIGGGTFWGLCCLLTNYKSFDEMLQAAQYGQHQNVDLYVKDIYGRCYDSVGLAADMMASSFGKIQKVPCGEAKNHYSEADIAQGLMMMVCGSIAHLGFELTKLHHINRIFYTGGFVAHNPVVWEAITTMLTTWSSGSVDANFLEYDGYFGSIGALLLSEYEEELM
Sequence of E. histolytica PanK (EhPanK) recombinant enzyme (B1N2P3 entry or part of it): as above

On to `Nc1ncnc2c1ncn2[C@@H]1O[C@H](COP(=O)(O)OP(=O)(O)OP(=O)(O)O)[C@@H](O)[C@H]1O` [ATP], for which the “Relative activity (phosphoryl donor)” value in assay [1] stood at 100.0 ± 4.1%. Turning to `Nc1ccn([C@@H]2O[C@H](COP(=O)(O)OP(=O)(O)OP(=O)(O)O)[C@@H](O)[C@H]2O)c(=O)n1` [CTP], the “Relative activity (phosphoryl donor)” value in assay [1] amounted to 1.4 ± 0.2%.

Take `[Ca+2].[Cl-].[Cl-]` [CaCl2]: the “Relative activity (metal)” value in assay [2] (setting [6]) turned out to be 17.0 ± 3.0%. For `O=C(Cc1cccs1)N[C@@H]1C(=O)N2C(C(=O)[O-])=C(C[n+]3ccccc3)CS[C@H]12` [Cephaloridine], the figures for the IC50 in assay [3] (setting [7]), in assay [4] and in assay [5] (Entamoeba histolytica) were 230 ± 10.1 µM, 48.2 ± 3.61 µM and 246 ± 34.9 µM, respectively. In the case of `[Cl-].[Cl-].[Co+2]` [CoCl2], the “Relative activity (metal)” value in assay [2] (pH 6) worked out at 74.2 ± 6.1%.

Turning to `[Cl][Cu][Cl]` [CuCl2], the “Relative activity (metal)” value in assay [2] (setting [6]) stood at 84.3 ± 4.7%. In the case of `CS[C@H]1SC[C@H]2C(=O)N(C)[C@@H](C(C)C)C(=O)OC[C@@H](NC(=O)c3cnc4ccccc4n3)C(=O)N[C@@H](C)C(=O)N(C)[C@@H]1C(=O)N(C)[C@@H](C(C)C)C(=O)OC[C@@H](NC(=O)c1cnc3ccccc3n1)C(=O)N[C@@H](C)C(=O)N2C` [Echinomycin], the IC50 in assay [3] (setting [7]) was 77.8 ± 4.4 µM; in assay [4], below 0.38 µM.

For the compound `CC[C@H]1OC(=O)[C@H](C)[C@@H](O[C@H]2C[C@@](C)(OC)[C@@H](O)[C@H](C)O2)[C@H](C)[C@@H](O[C@@H]2O[C@H](C)C[C@H](N(C)C)[C@H]2O)[C@](C)(O)C[C@@H](C)C(=O)[C@H](C)[C@@H](O)[C@]1(C)O` [Erythromycin A], the values for the IC50 in assay [3] (setting [7]), in assay [4] and in assay [5] (Entamoeba histolytica) were 131 ± 6 µM, above 136 µM and 156 ± 20.6 µM, respectively. Take `[Cl][Fe][Cl]` [FeCl2]: in assay [2] (setting [6]), the “Relative activity (metal)” value is listed as 72.8 ± 1.7%. For the compound `O=C1OC2(OC=C(c3ccccc3)C2=O)c2ccccc21` (stereo not drawn) [Fluorescamine], the IC50 in assay [3] (read-out: IC50 against EhPanK activity) amounted to 346 ± 14.7 µM; in assay [4], 288 ± 17.8 µM; in assay [5] (Entamoeba histolytica) it was 168 ± 20.1 µM. Turning to `Nc1nc2c(ncn2[C@@H]2O[C@H](COP(=O)(O)OP(=O)(O)OP(=O)(O)O)[C@@H](O)[C@H]2O)c(=O)[nH]1` [GTP], the “Relative activity (phosphoryl donor)” value in assay [1] came out at 78.8 ± 4.9%. `CC(=O)[C@H]1O[C@@H](Oc2ccc(/C=C(\C)C(=O)N[C@@H]3[C@H](O)[C@@H](O)[C@H]4OCO[C@H]4[C@@H]3O)cc2O)[C@@H](O)[C@@H]1O` [Hygromycin A]: the IC50 was 194 ± 17.8 µM in assay [3] (setting [7]), above 196 µM in assay [4] and 142 ± 16.3 µM in assay [5] (Entamoeba histolytica). On to `C[C@H]1O[C@H](O[C@H]2[C@H](O)[C@@H](O)[C@@H](O)[C@H](O)[C@@H]2O)[C@@H](N)C[C@@H]1NC(=N)C(=O)O` [Kasugamycin], for which the IC50 in assay [3] is 254 ± 4.7 µM; in assay [4], 87.1 ± 7.22 µM; in assay [5] (Entamoeba histolytica), 66.2 ± 13.7 µM. With `Cc1ncc([N+](=O)[O-])n1CCO` [Metronidazole], the 50% inhibitory concentration (IC50) in assay [4] was above 100 µM; in assay [5] (Entamoeba histolytica), 0.66 ± 0.05 µM. For `[Cl-].[Cl-].[Mg+2]` [MgCl2], the “Relative activity (metal)” value in assay [2] (setting [6]) turned out to be 100.0 ± 0.0%. Consider `[Cl][Mn][Cl]` [MnCl2], for which the “Relative activity (metal)” value in assay [2] (setting [6]) is 83.2 ± 2.0%. As for `NC[C@@H]1O[C@H](O[C@H]2[C@@H](O)[C@H](O[C@@H]3[C@@H](O)[C@H](N)C[C@H](N)[C@H]3O[C@H]3O[C@H](CN)[C@@H](O)[C@H](O)[C@H]3N)O[C@@H]2CO)[C@H](N)[C@@H](O)[C@@H]1O` [Neomycin], the IC50 is 147 ± 6.8 µM in assay [3] (setting [7]), above 163 µM in assay [4], below 20 µM in assay [5] (Entamoeba histolytica) and 10.6 ± 1.12 µM in assay [5]. For `COc1cccc2c1C(=O)C1=C(C[C@@H](CC(=O)O)O[C@@H]1C)C2=O` [O-methylnanaomycin A], the IC50 came to 284 ± 28.7 µM in assay [3] (setting [7]) and 19 ± 0.49 µM in assay [4]. On to `CCC1OC(=O)CC(O)C(C)C(O[C@@H]2O[C@H](C)C[C@H](N(C)C)[C@H]2O)C(CC=O)CC(C)C(=O)/C=C/C2(C)OC2C1C` (stereo partly drawn) [Rosamycin], for which the half-maximal inhibitory concentration (IC50) was 166 ± 2 µM in assay [3] (setting [7]), 34.4 ± 2.71 µM in assay [4] and 56.3 ± 11.7 µM in assay [5] (Entamoeba histolytica). Take `[H]/N=C(/N)N[C@H]1[C@H](O)[C@@H](O)[C@H](O[C@@H]2O[C@@H](C)[C@](O)(C=O)[C@H]2O[C@@H]2O[C@@H](CO)[C@H](O)[C@@H](O)[C@@H]2NC)[C@@H](N/C(N)=N\[H])[C@@H]1O` [Streptomycin]: the values for the IC50 in assay [3] (setting [7]), in assay [4] and in assay [5] (Entamoeba histolytica) were 155 ± 10.1 µM, above 172 µM and 77.5 ± 1.52 µM, respectively. Regarding `Cc1cn([C@H]2C[C@H](O)[C@@H](COP(=O)(O)OP(=O)(O)OP(=O)(O)O)O2)c(=O)[nH]c1=O` [TTP], the “Relative activity (phosphoryl donor)” value in assay [1] is listed as 5.4 ± 1.9%. As to `CCCCC/C=C\CCC(=O)N[C@H]1[C@H](Oc2c3cc4cc2Oc2ccc(cc2Cl)[C@@H](O[C@@H]2O[C@H](CO)[C@@H](O)[C@H](O)[C@H]2NC(C)=O)[C@@H]2NC(=O)[C@H](NC(=O)[C@@H]4NC(=O)[C@H]4NC(=O)[C@@H](Cc5ccc(c(Cl)c5)O3)NC(=O)[C@H](N)c3ccc(O)c(c3)Oc3cc(O)cc4c3)c3ccc(O)c(c3)-c3c(O[C@H]4O[C@H](CO)[C@@H](O)[C@H](O)[C@@H]4O)cc(O)cc3[C@@H](C(=O)O)NC2=O)O[C@H](CO)[C@@H](O)[C@@H]1O` [Teicoplanin], the half-inhibitory concentration (IC50) in assay [3] (read-out: IC50 against EhPanK activity, recombinant EhPanK, 100 μM pantothenate, 100 μM ATP, 37 °C, 2 h, mean ± SEM of three replicates) amounted to 26.3 ± 2.6 µM. `CC(/C=C/C(O)=C1/C(=O)CNC1=O)=C\C(C)C1OC2(C)OC(C(=O)C3OC32C)C1C` (stereo not drawn) [Tirandamycin A]: the concentration for half-maximal inhibition (IC50) is 229 ± 3.4 µM in assay [3] (setting [7]), 144 ± 3.8 µM in assay [4], below 20 µM in assay [5] (Entamoeba histolytica) and 13.7 ± 4.85 µM in assay [5]. `CC(/C=C/C(=O)NO)=C\[C@@H](C)C(=O)c1ccc(N(C)C)cc1` [Trichostatin]: the half-inhibitory concentration (IC50) in assay [3] (setting [7]) is 310 ± 14.9 µM; in assay [4] it was 2.62 ± 0.49 µM.

Turning to `O=P(O)(O)OP(=O)(O)OP(=O)(O)O` [Tripolyphosphate], the “Relative activity (phosphoryl donor)” value in assay [1] is recorded as 16.9 ± 0.8%. On to `O=c1ccn([C@@H]2O[C@H](COP(=O)(O)OP(=O)(O)OP(=O)(O)O)[C@@H](O)[C@H]2O)c(=O)[nH]1` [UTP], for which the “Relative activity (phosphoryl donor)” value in assay [1] was determined as 16.6 ± 1.2%. On to `[Cl-].[Cl-].[Zn+2]` [ZnCl2], for which the “Relative activity (metal)” value in assay [2] (setting [6]) worked out at 3.9 ± 0.7%. Turning to `Nc1ncnc2c1ncn2[C@H]1C[C@H](O)[C@@H](COP(=O)(O)OP(=O)(O)OP(=O)(O)O)O1` [dATP], the “Relative activity (phosphoryl donor)” value in assay [1] was 19.3 ± 4.3%. On to LiCl2, for which the “Relative activity (metal)” value in assay [2] (setting [6]) was 34.5 ± 1.8%. With Polyphosphate, the “Relative activity (phosphoryl donor)” value in assay [1] was 16.2 ± 2.5%.
